The subject of data set [1] is PI3Ks. As to the kind of experiment: PI3K inhibitory activity of copper salts. The format is biochemical. Conditions: up to 10 μM. Here is the method:
With this procedure in hand, we proceeded with our combinatorial strategy. The azides were selected to introduce both electron‐donating and electron‐withdrawing groups, hydrogen‐bond donors and acceptors, and ionizable functions. They were already present in our database or prepared according to standard procedures. […] Then, the 1,2,3‐triazoles were evaluated for their ability to inhibit PI3K isoforms of class I at a fixed concentration of 1 μM, as shown in Table 1. The synthesized 1,2,3‐triazoles along with their ability to inhibit PI3K isoforms at 1 μM concentration are reported. Possibly, a minute concentration of copper salts might have precipitated with the products and might have been retained in the purified compounds, and so, we also evaluated the PI3K inhibitory activity of these salts.

The test system of data set [2] is PI3Ks, all of the isoforms. Also noted: method as in PMID 8106507. Conditions: read-out: IC50 against all of the isoforms; cited from earlier work.
The nature of data set [3]: stability in mouse plasma. The format is in vitro ADME. Conditions: mouse, mouse plasma, 50 μM substrate, 30 min incubation, 37 °C; read-out: Mouse plasma t 1/2. How it is done: Twelve esters were prepared (see the Experimental Section for their synthesis and the Supporting Information for chromatographic methods) and evaluated in terms of metabolic stability. For this task, a combined approach based on microsomal and plasmatic stability assays was exploited considering the relevance of the plasmatic and hepatic tissues in esterase activity. Microsomal stability of the selected esters was evaluated by monitoring the disappearance of the substrate incubated in rat liver microsomes (RLM) at 50 μM concentration, in the presence of NADPH. In Table 4, the percentage of the remaining substrate, after incubation (t=60 min), with respect to the initial amount is reported. Overall, the compounds underwent a relevant metabolic transformation, and the substrate depletion ranged from 0 (for 76) to 100 % (for 70). This is mainly due to hydrolysis of the ester function, whereas the metabolites arising from the oxidation catalyzed by the NADPH‐dependent monooxygenase system were negligible from a quantitative point of view. Indeed, the main metabolite formed during the incubation of the esters was corresponding carboxyl derivative 37. […] Moreover, whereas CH2‐pyridin‐4‐yl ester 70 was completely metabolized, corresponding benzyl derivative 65 and piperonyl derivative 72 were more hydrolytically stable, and their residual substrates were 53 and 83 %, respectively. The hydrolytic stability of the selected esters was also evaluated by monitoring the depletion of the substrate incubated at a 50 μM concentration in mouse plasma over a period of 30 min. As expected, the plasmatic metabolic fate of the esters was characterized by the formation of 37 as the only metabolite (see Figure S4). The rate constant k [min^−1], derived for the substrate peak area versus time curve (single‐exponential decay equation—GraphPad Prism software, Inc., San Diego, CA (USA); see Figure S5) was used to calculate the in vitro half‐life t 1/2 [min], and the values are reported in Table 4. […]
Stability of PI3K inhibitors in mouse plasma
An aliquot of 460 µL of blank plasma spiked with substrate (50 µM, final concentration, DMSO 5%) was incubated at 37 °C for 30 minutes. Aliquots (70 µL) of the incubation took at 0-2-5-10-20, and 30 minutes were diluted with 140 µL of acetonitrile, homogenized, and centrifuged at 13,000 rpm for five minutes. Supernatants (20 µL) were injected onto HPLC.
(§1) A Shimadzu HPLC system (Shimadzu, Kyoto, Japan), consisting of two LC-10AD Vp module pumps, an SLC-10A Vp system controller, an SIL-10AD Vp autosampler, and a DGU-14-A on-line degasser was used for the analysis. All the chromatographic separations were performed on a Phenomenex Luna C18 5µm (150 x 4.6 mm i.d.) (Phenomenex srl, Castel Bolognese, Italy) as a stationary phase protected by a Luna C18 SecurityGuard (Phenomenex srl). The SPD-M10Avp photodiode array detector was used to detect the analyte at 254 nm. LC Solution 1.24 software was used to process the chromatograms. Aliquots (20 µL) of supernatants obtained from incubations were injected onto the HPLC system and eluted with a mobile phase (flow rate: 1 mL/min) consisting of solvent A- 0.5% aqueous formic acid solution and solvent B- acetonitrile/methanol 80:20.
(§2) The eluants were filtered through a 0.45-µm pore size polyvinylidene difluoride membrane […]
(§3) The following gradients programs were used: […]

The subject of data set [4] is PC3 cells. As to the kind of experiment: PC3 cell proliferation (MTT). On the set-up: key to Cell proliferation: active: Active: able to reduce proliferation to an extent greater than 50 %; inactive: able to reduce proliferation to an extent less than 50 %. The format is cell-based. The following applies: PC3 cells, 10 μM of each prodrug. How it is done: The biological activity of each prodrug was tested by analyzing their ability to decrease PC3 proliferation as a rapid test to evaluate the PI3Ks inhibitory activity after hydrolysis in a cell‐based assay. […] The choice of using such a cut‐off was due to the intent to identify rapidly which prodrug could be hydrolyzed in the assay to release the active compound. As expected, a good correlation between rate of hydrolysis and cellular activity was observed, and esters 64–68 and 70–73 were determined to be good candidates for topical use. We decided to focus our attention on ester 64, as its half‐life was a good compromise for a prodrug. The EC50 value of this ester was then evaluated on PC3 cells, and a value of (2.3±0.8) μM was obtained.
Cell proliferation: PC3 cell proliferation was measured with a 3‐(4,5‐dimethyl thiazol‐2‐yl)‐2,5‐diphenyltetrazolium bromide (MTT)‐based colorimetric assay (#11 465 007 001 Roche Diagnostic GmbH, Germany). PC3 cells were seeded in a 96‐well plate at a concentration of 10^4 cells mL^−1. PC3 cells were treated for 72 h with increasing concentrations of 64, and MTT was added. After ON solubilization of the MTT metabolite, formazan, the absorbance (λ=550–600 nm absorbance, with a reference wavelength of 650 nm) of each well was read in a multi‐well reader (Glomax multi detection system, Promega, model number 9301‐010). The percentage of proliferating cells was calculated by relating each absolute value to the control intended as PC3 cells treated with DMSO alone. An IC50 value was then derived by plotting all data on a dose–response curve (Graph Pad software) by using nonlinear regression fit (equation [log agonist] versus response).

A short description of data set [5]: metabolic stability in rat liver microsomes (RLM). The following applies: RLM, 50 μM substrate, with NADPH, LC–UV. The format is in vitro ADME. How it is done: Twelve esters were prepared (see the Experimental Section for their synthesis and the Supporting Information for chromatographic methods) and evaluated in terms of metabolic stability. For this task, a combined approach based on microsomal and plasmatic stability assays was exploited considering the relevance of the plasmatic and hepatic tissues in esterase activity. Microsomal stability of the selected esters was evaluated by monitoring the disappearance of the substrate incubated in rat liver microsomes (RLM) at 50 μM concentration, in the presence of NADPH. In Table 4, the percentage of the remaining substrate, after incubation (t=60 min), with respect to the initial amount is reported. Overall, the compounds underwent a relevant metabolic transformation, and the substrate depletion ranged from 0 (for 76) to 100 % (for 70). This is mainly due to hydrolysis of the ester function, whereas the metabolites arising from the oxidation catalyzed by the NADPH‐dependent monooxygenase system were negligible from a quantitative point of view. Indeed, the main metabolite formed during the incubation of the esters was corresponding carboxyl derivative 37. […] Moreover, whereas CH2‐pyridin‐4‐yl ester 70 was completely metabolized, corresponding benzyl derivative 65 and piperonyl derivative 72 were more hydrolytically stable, and their residual substrates were 53 and 83 %, respectively. The hydrolytic stability of the selected esters was also evaluated by monitoring the depletion of the substrate incubated at a 50 μM concentration in mouse plasma over a period of 30 min. As expected, the plasmatic metabolic fate of the esters was characterized by the formation of 37 as the only metabolite (see Figure S4). The rate constant k [min^−1], derived for the substrate peak area versus time curve (single‐exponential decay equation—GraphPad Prism software, Inc., San Diego, CA (USA); see Figure S5) was used to calculate the in vitro half‐life t 1/2 [min], and the values are reported in Table 4.
Metabolic stability of PI3K inhibitors in RLM fraction
The standard incubation mixture (500 µL final volume), in 1.5 mL Eppendorf tubes, was carried out in a 50 mM TRIS-HCl buffer (pH 7.4) containing 3.3 mM MgCl2, 1.3 mM NADPNa2, 3.3 mM glucose 6-phosphate, 0.4 Units/mL glucose 6-phosphate dehydrogenase (NADPH regenerating system), acetonitrile as cosolvent (1% of final volume) and 50 µM of substrate. After pre-equilibration of the mixture, an appropriate volume of rat microsomal suspension was added to give a final protein concentration of 1 mg/mL. The mixture was shaken for 1 hour at 37°C and the reaction was quenched by diluting the samples with 500 µL of ice-cold acetonitrile. The samples were then centrifuged at 13,000 rpm for 10 min, and the supernatant was directly injected onto the HPLC column for analysis. Control incubations were performed without microsomes. […]
as §1, §2, §3

As to `CC(=O)[O-].CC(=O)[O-].[Cu+2]` [copper(II) acetate], in data set [1], the “inhibition of PI3Ks” value is recorded as “Neither copper(II) acetate nor copper(I) iodide displayed significant inhibition of PI3Ks up to 10 μM”.

In the case of `O=c1cc(N2CCOCC2)oc2c(-c3ccccc3)cccc12` [LY294002], in data set [2], the IC50 was ~500 nM. With `[Cu+].[I-]` [copper(I) iodide], in data set [1], the “inhibition of PI3Ks” value is on record as “Neither copper(II) acetate nor copper(I) iodide displayed significant inhibition of PI3Ks up to 10 μM”. For `CCCC(C)OC(=O)c1cccc(Cn2cc(-c3cccc4c(=O)cc(N5CCOCC5)[nH]c34)nn2)c1` (stereo not drawn) [Compound 74, Pentan‐2‐yl 3‐{[4‐(2‐morpholino‐4‐oxo‐1,4‐dihydroquinolin‐8‐yl)‐1H‐1,2,3‐triazol‐1‐yl]methyl}benzoate], the half-life at 50 µM in data set [3] worked out at 4.2 min. In addition, the Cell proliferation entry in data set [4] was “inactive”. Moreover, in data set [5], the “Residual microsomal substrate (t=60 min)” value was determined as 60%.

Broadly, the IC50 is the concentration needed to halve the response being measured.
